From the kinase profiling compilation of Christmann-Franck et al. (2016)

Assays:
Experiment in all cases: radiometric filter-binding kinase assay
[1] = molecular target: STK11 CAB39 STRADA (human) (UniProt Q9Y376+Q7RTN6+Q15831)
RIPK2 (human) = RIPK2 (human) (UniProt O43353)
MAPK11 (human) = MAPK11 (human) (UniProt Q15759)
PRKCA (human) = PRKCA (human) (UniProt P17252)
YES1 (human) = YES1 (human) (UniProt P07947)
MKNK2 (human) = MKNK2 (human) (UniProt Q9HBH9)
DYRK2 (human) = DYRK2 (human) (UniProt Q92630)
RPS6KA1 KD1 KD2 (human) = RPS6KA1 KD1 KD2 (human) (UniProt Q15418)
SRPK1 (human) = SRPK1 (human) (UniProt Q96SB4)
CLK2 (human) = CLK2 (human) (UniProt P49760)
MAPK15 (human) = MAPK15 (human) (UniProt Q8TD08)
MAPK14 (human) = MAPK14 (human) (UniProt Q16539)
INSR (human) = INSR (human) (UniProt P06213)
NTRK1 (human) = NTRK1 (human) (UniProt P04629)
IRAK4 (human) = IRAK4 (human) (UniProt Q9NWZ3)
MAP3K1 (human) = MAP3K1 (human) (UniProt Q13233)
CSNK2A1 (human) = CSNK2A1 (human) (UniProt P68400)
BTK (human) = BTK (human) (UniProt Q06187)
Sequence of BTK (human) (Q06187 whole entry, looked up): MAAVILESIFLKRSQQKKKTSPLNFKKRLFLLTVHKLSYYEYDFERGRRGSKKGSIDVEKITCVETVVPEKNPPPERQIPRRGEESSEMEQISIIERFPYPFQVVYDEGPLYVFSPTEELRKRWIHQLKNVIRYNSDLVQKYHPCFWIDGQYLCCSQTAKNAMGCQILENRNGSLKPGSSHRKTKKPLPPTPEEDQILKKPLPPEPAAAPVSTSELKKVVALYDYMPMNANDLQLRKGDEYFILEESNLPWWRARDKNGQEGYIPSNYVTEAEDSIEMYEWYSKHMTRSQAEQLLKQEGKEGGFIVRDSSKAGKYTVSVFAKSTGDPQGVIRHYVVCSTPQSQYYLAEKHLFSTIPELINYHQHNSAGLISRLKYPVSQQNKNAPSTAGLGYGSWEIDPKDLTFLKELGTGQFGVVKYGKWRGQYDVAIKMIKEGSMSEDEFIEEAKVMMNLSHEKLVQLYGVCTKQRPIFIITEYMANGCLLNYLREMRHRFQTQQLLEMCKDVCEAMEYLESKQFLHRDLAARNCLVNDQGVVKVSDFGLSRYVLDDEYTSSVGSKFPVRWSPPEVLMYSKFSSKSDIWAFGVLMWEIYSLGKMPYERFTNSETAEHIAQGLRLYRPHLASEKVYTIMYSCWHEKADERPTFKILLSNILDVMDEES

[2] = test system: AKT2 (human), P31751 [S474D]
MAPK1 (human) = MAPK1 (human) (UniProt P28482)
CSNK1D (human) = CSNK1D (human) (UniProt P48730)
FLT1 (human) = FLT1 (human) (UniProt P17948)
MAP3K9 (human) = MAP3K9 (human) (UniProt P80192)
JAK2 JH1 JH2 (human) = JAK2 JH1 JH2 (human) (UniProt O60674)
NEK2 (human) = NEK2 (human) (UniProt P51955)
Sequence of NEK2 (human) (P51955 whole entry, looked up): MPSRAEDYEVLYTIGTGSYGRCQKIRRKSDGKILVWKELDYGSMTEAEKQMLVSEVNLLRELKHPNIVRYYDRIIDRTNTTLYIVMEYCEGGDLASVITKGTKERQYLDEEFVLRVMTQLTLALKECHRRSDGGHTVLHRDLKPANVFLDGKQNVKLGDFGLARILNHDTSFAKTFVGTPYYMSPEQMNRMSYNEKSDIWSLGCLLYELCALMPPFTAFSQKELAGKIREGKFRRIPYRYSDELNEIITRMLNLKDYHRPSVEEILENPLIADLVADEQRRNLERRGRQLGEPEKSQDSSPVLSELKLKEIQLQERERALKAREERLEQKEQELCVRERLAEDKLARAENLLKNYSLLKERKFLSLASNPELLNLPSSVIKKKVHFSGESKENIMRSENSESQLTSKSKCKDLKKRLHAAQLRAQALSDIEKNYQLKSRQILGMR

AURKA (human) = AURKA (human) (UniProt O14965)
INSRR (human) = INSRR (human) (UniProt P14616)
Sequence of INSRR (human) (P14616 whole entry, looked up): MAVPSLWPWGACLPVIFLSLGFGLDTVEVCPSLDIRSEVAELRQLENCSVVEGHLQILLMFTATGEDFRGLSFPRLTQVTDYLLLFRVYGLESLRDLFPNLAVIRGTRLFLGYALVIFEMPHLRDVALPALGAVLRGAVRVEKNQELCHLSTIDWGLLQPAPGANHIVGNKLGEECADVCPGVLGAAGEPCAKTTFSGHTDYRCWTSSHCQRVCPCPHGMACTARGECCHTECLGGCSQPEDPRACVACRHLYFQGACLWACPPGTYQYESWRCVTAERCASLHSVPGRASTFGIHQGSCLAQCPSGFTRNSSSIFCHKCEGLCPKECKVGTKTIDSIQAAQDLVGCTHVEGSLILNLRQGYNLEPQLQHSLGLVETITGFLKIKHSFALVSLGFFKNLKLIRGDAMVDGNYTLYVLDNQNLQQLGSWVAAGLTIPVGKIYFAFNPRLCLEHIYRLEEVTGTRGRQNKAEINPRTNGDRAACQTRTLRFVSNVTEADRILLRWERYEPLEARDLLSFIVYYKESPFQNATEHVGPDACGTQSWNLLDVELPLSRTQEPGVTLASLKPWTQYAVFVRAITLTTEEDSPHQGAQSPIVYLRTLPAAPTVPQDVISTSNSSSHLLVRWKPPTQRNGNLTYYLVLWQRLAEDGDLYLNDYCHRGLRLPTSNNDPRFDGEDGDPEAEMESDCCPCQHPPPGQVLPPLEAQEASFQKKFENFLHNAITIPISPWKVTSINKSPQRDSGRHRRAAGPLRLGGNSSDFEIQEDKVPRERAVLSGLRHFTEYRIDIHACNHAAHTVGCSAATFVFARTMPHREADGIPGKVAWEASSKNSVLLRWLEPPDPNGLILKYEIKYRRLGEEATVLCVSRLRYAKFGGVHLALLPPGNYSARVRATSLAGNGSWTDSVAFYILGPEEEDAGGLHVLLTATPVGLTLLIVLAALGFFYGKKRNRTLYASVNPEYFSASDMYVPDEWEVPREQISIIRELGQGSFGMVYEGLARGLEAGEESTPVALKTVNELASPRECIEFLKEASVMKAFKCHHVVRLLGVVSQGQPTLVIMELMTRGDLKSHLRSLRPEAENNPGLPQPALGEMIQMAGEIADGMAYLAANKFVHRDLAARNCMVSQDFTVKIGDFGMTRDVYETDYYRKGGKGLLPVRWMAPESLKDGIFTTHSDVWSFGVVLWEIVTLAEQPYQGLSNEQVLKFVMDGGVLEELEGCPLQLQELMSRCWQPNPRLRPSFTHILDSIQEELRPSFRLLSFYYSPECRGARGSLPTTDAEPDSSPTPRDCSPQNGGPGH

[3] = test system: RPS6KB1 (human), P23443 [T412E]
HIPK2 (human) = HIPK2 (human) (UniProt Q9H2X6)
RPS6KA5 KD1 KD2 (human) = RPS6KA5 KD1 KD2 (human) (UniProt O75582)
Sequence of RPS6KA5 KD1 KD2 (human) (O75582 whole entry, looked up): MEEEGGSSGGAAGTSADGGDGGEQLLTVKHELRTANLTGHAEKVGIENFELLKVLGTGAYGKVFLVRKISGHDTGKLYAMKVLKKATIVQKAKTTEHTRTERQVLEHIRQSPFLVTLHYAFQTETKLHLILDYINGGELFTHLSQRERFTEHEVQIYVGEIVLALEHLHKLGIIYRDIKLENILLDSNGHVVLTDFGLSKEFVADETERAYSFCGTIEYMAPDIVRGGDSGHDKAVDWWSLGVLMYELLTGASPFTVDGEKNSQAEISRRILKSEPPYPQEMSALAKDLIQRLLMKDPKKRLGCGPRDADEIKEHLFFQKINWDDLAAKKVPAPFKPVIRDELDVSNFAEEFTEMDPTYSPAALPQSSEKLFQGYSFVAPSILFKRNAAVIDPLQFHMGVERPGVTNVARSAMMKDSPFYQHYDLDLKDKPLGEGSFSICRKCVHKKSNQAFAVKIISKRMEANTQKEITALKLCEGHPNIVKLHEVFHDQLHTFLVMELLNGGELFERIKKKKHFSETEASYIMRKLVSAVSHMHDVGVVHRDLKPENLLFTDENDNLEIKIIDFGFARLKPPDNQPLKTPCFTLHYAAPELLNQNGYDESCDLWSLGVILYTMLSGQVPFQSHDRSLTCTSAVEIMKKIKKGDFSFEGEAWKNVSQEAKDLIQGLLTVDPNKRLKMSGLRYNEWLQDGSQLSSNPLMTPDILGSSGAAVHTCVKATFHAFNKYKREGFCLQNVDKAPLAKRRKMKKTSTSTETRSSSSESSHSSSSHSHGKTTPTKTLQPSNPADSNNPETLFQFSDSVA

MAPKAPK3 (human) = MAPKAPK3 (human) (UniProt Q16644)
NEK6 (human) = NEK6 (human) (UniProt Q9HC98)
HIPK1 (human) = HIPK1 (human) (UniProt Q86Z02)
MARK4 (human) = MARK4 (human) (UniProt Q96L34)
MARK3 (human) = MARK3 (human) (UniProt P27448)

Sequence of STK11 CAB39 STRADA (human) (Q15831 whole entry, looked up): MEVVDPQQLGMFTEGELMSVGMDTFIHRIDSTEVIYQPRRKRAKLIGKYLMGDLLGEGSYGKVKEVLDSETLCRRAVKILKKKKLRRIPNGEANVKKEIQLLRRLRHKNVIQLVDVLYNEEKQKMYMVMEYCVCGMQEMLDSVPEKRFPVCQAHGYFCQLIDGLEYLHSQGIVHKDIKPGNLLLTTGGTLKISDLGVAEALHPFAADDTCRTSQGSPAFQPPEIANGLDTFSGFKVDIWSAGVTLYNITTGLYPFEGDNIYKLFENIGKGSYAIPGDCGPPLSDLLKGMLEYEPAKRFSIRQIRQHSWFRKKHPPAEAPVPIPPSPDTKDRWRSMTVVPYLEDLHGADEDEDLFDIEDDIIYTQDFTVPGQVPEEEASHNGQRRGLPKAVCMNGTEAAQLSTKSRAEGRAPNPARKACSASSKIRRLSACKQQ
Sequence of STK11 CAB39 STRADA (human) (Q7RTN6 whole entry, looked up): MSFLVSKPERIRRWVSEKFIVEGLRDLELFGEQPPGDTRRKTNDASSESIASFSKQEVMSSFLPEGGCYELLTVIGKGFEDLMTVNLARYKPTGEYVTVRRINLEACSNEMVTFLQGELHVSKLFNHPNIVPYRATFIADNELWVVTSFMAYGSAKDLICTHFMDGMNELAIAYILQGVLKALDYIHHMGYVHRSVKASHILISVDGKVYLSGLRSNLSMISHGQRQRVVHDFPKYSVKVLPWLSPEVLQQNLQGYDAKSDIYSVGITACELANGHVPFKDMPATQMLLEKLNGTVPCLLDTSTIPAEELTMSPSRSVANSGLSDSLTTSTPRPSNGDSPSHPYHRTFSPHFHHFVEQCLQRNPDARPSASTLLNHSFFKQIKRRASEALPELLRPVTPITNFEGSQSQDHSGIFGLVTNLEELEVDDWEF
Sequence of STK11 CAB39 STRADA (human) (Q9Y376 whole entry, looked up): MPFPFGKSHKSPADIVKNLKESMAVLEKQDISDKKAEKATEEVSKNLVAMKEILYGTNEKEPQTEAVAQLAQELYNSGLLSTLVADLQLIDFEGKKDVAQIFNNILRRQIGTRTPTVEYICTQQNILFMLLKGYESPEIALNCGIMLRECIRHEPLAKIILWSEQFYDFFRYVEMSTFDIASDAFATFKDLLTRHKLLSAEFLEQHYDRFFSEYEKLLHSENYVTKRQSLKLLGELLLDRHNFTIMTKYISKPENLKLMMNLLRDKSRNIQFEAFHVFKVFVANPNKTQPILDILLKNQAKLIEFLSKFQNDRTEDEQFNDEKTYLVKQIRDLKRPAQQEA
Sequence of YES1 (human) (P07947 whole entry, looked up): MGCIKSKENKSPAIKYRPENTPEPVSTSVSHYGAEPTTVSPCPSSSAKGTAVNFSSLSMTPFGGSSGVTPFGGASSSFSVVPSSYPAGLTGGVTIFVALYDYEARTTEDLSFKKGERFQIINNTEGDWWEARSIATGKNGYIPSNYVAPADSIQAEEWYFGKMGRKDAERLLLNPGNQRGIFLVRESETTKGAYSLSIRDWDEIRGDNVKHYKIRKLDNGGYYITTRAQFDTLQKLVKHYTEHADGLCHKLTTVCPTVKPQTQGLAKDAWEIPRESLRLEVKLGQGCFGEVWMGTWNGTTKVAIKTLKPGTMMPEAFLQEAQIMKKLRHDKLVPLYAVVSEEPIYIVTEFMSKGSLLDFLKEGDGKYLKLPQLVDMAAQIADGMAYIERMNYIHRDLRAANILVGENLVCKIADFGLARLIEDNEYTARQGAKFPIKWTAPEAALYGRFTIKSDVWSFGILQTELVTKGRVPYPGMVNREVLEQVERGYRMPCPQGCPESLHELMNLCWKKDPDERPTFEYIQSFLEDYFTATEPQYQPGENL

residual activity ([1]; compound 0.1 µM): 102%
residual activity ([1]; compound 1.0 µM): 85%
residual activity ([1]; compound 10.0 µM): 86%
residual activity (RIPK2 (human); compound 0.1 µM): 101%
residual activity (RIPK2 (human); compound 1.0 µM): 84%
residual activity (RIPK2 (human); compound 10.0 µM): 38%
residual activity (MAPK11 (human); compound 0.1 µM): 99%
residual activity (MAPK11 (human); compound 1.0 µM): 77%
residual activity (MAPK11 (human); compound 10.0 µM): 76%
residual activity (PRKCA (human); compound 0.1 µM): 97%
residual activity (PRKCA (human); compound 1.0 µM): 94%
residual activity (PRKCA (human); compound 10.0 µM): 98%
residual activity (YES1 (human); compound 0.1 µM): 102%
residual activity (YES1 (human); compound 1.0 µM): 99%
residual activity (YES1 (human); compound 10.0 µM): 68%
residual activity (MKNK2 (human); compound 0.1 µM): 90%
residual activity (MKNK2 (human); compound 1.0 µM): 100%
residual activity (MKNK2 (human); compound 10.0 µM): 92%
residual activity (DYRK2 (human); compound 0.1 µM): 96%
residual activity (DYRK2 (human); compound 1.0 µM): 96%
residual activity (DYRK2 (human); compound 10.0 µM): 87%
residual activity (RPS6KA1 KD1 KD2 (human); compound 0.1 µM): 101%
residual activity (RPS6KA1 KD1 KD2 (human); compound 1.0 µM): 87%
residual activity (RPS6KA1 KD1 KD2 (human); compound 10.0 µM): 62%
residual activity (SRPK1 (human); compound 0.1 µM): 107%
residual activity (SRPK1 (human); compound 1.0 µM): 106%
residual activity (SRPK1 (human); compound 10.0 µM): 116%
residual activity (CLK2 (human); compound 0.1 µM): 103%
residual activity (CLK2 (human); compound 1.0 µM): 81%
residual activity (CLK2 (human); compound 10.0 µM): 67%
residual activity (MAPK14 (human); compound 0.1 µM): 110%
residual activity (MAPK14 (human); compound 1.0 µM): 97%
residual activity (MAPK14 (human); compound 10.0 µM): 101%
residual activity (INSR (human); compound 1.0 µM): 79%
residual activity (INSR (human); compound 10.0 µM): 83%
residual activity (NTRK1 (human); compound 0.1 µM): 107%
residual activity (NTRK1 (human); compound 1.0 µM): 90%
residual activity (NTRK1 (human); compound 10.0 µM): 87%
residual activity (IRAK4 (human); compound 0.1 µM): 106%
residual activity (IRAK4 (human); compound 1.0 µM): 92%
residual activity (IRAK4 (human); compound 10.0 µM): 99%
residual activity (MAP3K1 (human); compound 0.1 µM): 114%
residual activity (MAP3K1 (human); compound 1.0 µM): 101%
residual activity (MAP3K1 (human); compound 10.0 µM): 83%
residual activity (CSNK2A1 (human); compound 0.1 µM): 104%
residual activity (CSNK2A1 (human); compound 10.0 µM): 84%
residual activity (BTK (human); compound 0.1 µM): 87%
residual activity (BTK (human); compound 1.0 µM): 96%
residual activity (BTK (human); compound 10.0 µM): 99%
residual activity ([2]; compound 0.1 µM): 69%
residual activity ([2]; compound 1.0 µM): 86%
residual activity ([2]; compound 10.0 µM): 68%
residual activity (MAPK1 (human); compound 0.1 µM): 104%
residual activity (MAPK1 (human); compound 1.0 µM): 96%
residual activity (MAPK1 (human); compound 10.0 µM): 75%
residual activity (CSNK1D (human); compound 0.1 µM): 119%
residual activity (CSNK1D (human); compound 1.0 µM): 100%
residual activity (CSNK1D (human); compound 10.0 µM): 91%
residual activity (FLT1 (human); compound 0.1 µM): 88%
residual activity (FLT1 (human); compound 1.0 µM): 81%
residual activity (FLT1 (human); compound 10.0 µM): 53%
residual activity (MAP3K9 (human); compound 0.1 µM): 110%
residual activity (MAP3K9 (human); compound 1.0 µM): 93%
residual activity (JAK2 JH1 JH2 (human); compound 1.0 µM): 84%
residual activity (JAK2 JH1 JH2 (human); compound 10.0 µM): 94%
residual activity (NEK2 (human); compound 0.1 µM): 95%
residual activity (NEK2 (human); compound 1.0 µM): 87%
residual activity (NEK2 (human); compound 10.0 µM): 87%
residual activity (AURKA (human); compound 0.1 µM): 114%
residual activity (AURKA (human); compound 1.0 µM): 89%
residual activity (AURKA (human); compound 10.0 µM): 93%
residual activity (INSRR (human); compound 0.1 µM): 95%
residual activity (INSRR (human); compound 1.0 µM): 80%
residual activity (INSRR (human); compound 10.0 µM): 61%
residual activity ([3]; compound 0.1 µM): 84%
residual activity ([3]; compound 1.0 µM): 84%
residual activity ([3]; compound 10.0 µM): 84%
residual activity (HIPK2 (human); compound 0.1 µM): 102%
residual activity (HIPK2 (human); compound 1.0 µM): 97%
residual activity (HIPK2 (human); compound 10.0 µM): 80%
residual activity (RPS6KA5 KD1 KD2 (human); compound 0.1 µM): 84%
residual activity (RPS6KA5 KD1 KD2 (human); compound 1.0 µM): 90%
residual activity (RPS6KA5 KD1 KD2 (human); compound 10.0 µM): 76%
residual activity (MAPKAPK3 (human); compound 0.1 µM): 88%
residual activity (MAPKAPK3 (human); compound 1.0 µM): 107%
residual activity (MAPKAPK3 (human); compound 10.0 µM): 94%
residual activity (NEK6 (human); compound 0.1 µM): 106%
residual activity (NEK6 (human); compound 1.0 µM): 98%
residual activity (NEK6 (human); compound 10.0 µM): 90%
residual activity (HIPK1 (human); compound 0.1 µM): 91%
residual activity (HIPK1 (human); compound 1.0 µM): 85%
residual activity (HIPK1 (human); compound 10.0 µM): 97%
residual activity (MARK4 (human); compound 0.1 µM): 98%
residual activity (MARK4 (human); compound 1.0 µM): 102%
residual activity (MARK4 (human); compound 10.0 µM): 92%
residual activity (MARK3 (human); compound 0.1 µM): 85%
residual activity (MARK3 (human); compound 1.0 µM): 99%
residual activity (MARK3 (human); compound 10.0 µM): 91%
SMILES: NC1(c2ccc(-c3nc4ccn5c(=O)[nH]nc5c4cc3-c3ccccc3)cc2)CCC1
residual activity (MAPK15 (human); compound 0.1 µM): 106%
residual activity (MAPK15 (human); compound 1.0 µM): 89%
residual activity (MAPK15 (human); compound 10.0 µM): 93%
